Results from patent US20250163053A1, “CRYSTALLINE FORM OF NITROGEN-CONTAINING HETEROCYCLIC COMPOUND, PREPARATION METHOD THEREFOR AND USE THEREOF” (SHANGHAI PHARMACEUTICALS HOLDING CO., LTD., priority 2022, published 2025).
Like-named read-outs stand apart in the source and are kept apart here. Blank lines part the entries; values can stand above or below the compound they belong to.

Assays:
[1] = Absorption in rats after intragastric administration of different crystal forms (plasma PK, LC/MS/MS); format: in vivo; conditions: 8 mg/kg
Experimental: SD rats were intragastrically administered samples of different crystal forms. Blood samples (0.4 mL) were respectively collected from the venous plexus of the rat's fundus oculi at various time points: before administration and at 5, 15, 30, 60, 90, 120, 240, 360, 480, 600, and 1440 minutes after administration. The blood samples were centrifuged at 8000 rpm for 5 minutes to separate the upper plasma. 50 μL of plasma sample was added with 300 μL of acetonitrile containing an internal standard (Propranolol, 25 ng/mL) to precipitate proteins. The mixture was vortexed for 10 minutes, and centrifuged at 6000 g and 4° C. for 20 minutes. The supernatant (20 μL) was taken and diluted with 80 μL of ultrapure water. After centrifugation, 80 μL of the supernatant was taken for injection into a 96-well plate. The plasma drug concentration was determined using LC/MS/MS, and the corresponding pharmacokinetic parameters were calculated, as shown in Table 17.

ErbB2 kinase (HER2) = target: T1, ErbB2 kinase (HER2) (Homo sapiens, UniProt P04626); assay: EGFR/ErbB2 enzymatic assay (HTRF kinEASE-TK), ErbB2; format: biochemical; conditions: ErbB2 kinase 0.06 ng/μL, ATP 4 μM
T1 construct: purchased Sigma E2645-500UN
Experimental: (§1) First, a 1× reaction buffer required for the kinase was prepared by diluting the 5× Enzymatic Buffer (HEPES 20 mM, pH 7.0, NaN3 0.1%, BSA 0.05%, sodium orthovanadate 0.5 mM) from the HTRF kinEASE-TK kit with deionized water to one-fold. At the same time, 50 nM Supplement Enzymatic Buffer (SEB reagent), 1 mM MnCl2, 5 mM MgCl2, and 1 mM DTT were added. Next, a 5× compound solution was prepared. […] This initial concentration was then used as the first concentration, and further diluted with DMSO in a 3-fold serial dilution to dilute a total of 10 concentrations. Subsequently, 1 μL of the serially diluted solution was added to 19 μL of 1× reaction buffer to prepare the 5× compound solution for later use. Then, 2 μL of the 5× compound solution was transferred from the 96-well plate into a 384-well plate. In the no-compound control wells, 2 μL of a mixture of 1 μL DMSO and 19 μL 1× reaction buffer was added. In the blank control wells, 2 μL of 250 mM EDTA was added. In the third step, the enzyme reaction stage, the kinase, substrate (TK Substrate-biotin), and ATP were prepared into a 2.5× enzyme/substrate mixture and a 2.5× ATP solution using the 1× reaction buffer. […] Data were measured on EnVision™, with a 337 nm laser used as the excitation light. The RFU was measured at 665 nm and 620 nm, and RFU 665 nM/RFU 620 nM×10000 was used as the final data for analysis.

EGFR kinase = target: T2, EGFR kinase (Homo sapiens, UniProt P00533); assay: EGFR/ErbB2 enzymatic assay (HTRF kinEASE-TK), EGFR; format: biochemical; conditions: EGFR kinase 0.06 units/μL, ATP 1.65 μM
T2 construct: purchased Carna 08-016
Experimental: as §1

[2] = Physicochemical stability of crystal form C (UPLC purity, XRPD)
Experimental: The solid samples after being placed under different conditions were respectively tested for purity by UPLC to evaluate chemical stability, and the crystal form was tested by XRPD to evaluate physical stability. […] Additionally, no significant degradation was observed after one day at 60° C. or one week at 25° C./60% RH and 40° C./75% RH (details of purity changes are provided in Table 16).

T2 sequence (P00533 25-1210): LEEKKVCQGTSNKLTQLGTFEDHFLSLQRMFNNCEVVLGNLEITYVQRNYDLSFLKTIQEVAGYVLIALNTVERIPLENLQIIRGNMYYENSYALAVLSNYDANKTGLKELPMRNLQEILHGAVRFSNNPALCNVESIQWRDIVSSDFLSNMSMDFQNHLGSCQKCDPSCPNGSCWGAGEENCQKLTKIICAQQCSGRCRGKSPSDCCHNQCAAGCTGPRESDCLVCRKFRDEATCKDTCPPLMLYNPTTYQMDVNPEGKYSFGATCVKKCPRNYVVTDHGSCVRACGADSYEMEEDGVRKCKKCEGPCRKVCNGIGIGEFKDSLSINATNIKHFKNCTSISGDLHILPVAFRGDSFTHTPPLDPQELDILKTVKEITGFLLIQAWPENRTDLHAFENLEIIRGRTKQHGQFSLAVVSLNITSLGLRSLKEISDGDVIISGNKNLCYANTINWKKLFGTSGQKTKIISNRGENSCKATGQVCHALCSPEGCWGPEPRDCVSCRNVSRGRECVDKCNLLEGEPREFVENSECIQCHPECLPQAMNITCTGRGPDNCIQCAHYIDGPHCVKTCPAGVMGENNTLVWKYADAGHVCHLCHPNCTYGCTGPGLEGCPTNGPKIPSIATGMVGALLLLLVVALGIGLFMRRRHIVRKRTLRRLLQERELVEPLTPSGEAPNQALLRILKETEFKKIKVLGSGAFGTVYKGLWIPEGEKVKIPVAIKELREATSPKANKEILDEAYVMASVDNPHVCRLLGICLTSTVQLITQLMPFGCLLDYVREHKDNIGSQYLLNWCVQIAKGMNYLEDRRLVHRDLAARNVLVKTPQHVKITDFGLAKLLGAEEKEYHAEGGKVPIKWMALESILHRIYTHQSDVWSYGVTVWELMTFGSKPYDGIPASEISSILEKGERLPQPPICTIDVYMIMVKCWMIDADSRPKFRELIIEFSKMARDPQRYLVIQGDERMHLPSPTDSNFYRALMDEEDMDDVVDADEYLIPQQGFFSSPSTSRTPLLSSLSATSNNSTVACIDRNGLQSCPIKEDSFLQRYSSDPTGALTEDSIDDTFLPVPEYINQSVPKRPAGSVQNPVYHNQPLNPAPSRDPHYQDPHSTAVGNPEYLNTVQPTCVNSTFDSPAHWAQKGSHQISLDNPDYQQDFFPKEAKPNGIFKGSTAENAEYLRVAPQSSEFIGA
T1 sequence (P04626 23-1255): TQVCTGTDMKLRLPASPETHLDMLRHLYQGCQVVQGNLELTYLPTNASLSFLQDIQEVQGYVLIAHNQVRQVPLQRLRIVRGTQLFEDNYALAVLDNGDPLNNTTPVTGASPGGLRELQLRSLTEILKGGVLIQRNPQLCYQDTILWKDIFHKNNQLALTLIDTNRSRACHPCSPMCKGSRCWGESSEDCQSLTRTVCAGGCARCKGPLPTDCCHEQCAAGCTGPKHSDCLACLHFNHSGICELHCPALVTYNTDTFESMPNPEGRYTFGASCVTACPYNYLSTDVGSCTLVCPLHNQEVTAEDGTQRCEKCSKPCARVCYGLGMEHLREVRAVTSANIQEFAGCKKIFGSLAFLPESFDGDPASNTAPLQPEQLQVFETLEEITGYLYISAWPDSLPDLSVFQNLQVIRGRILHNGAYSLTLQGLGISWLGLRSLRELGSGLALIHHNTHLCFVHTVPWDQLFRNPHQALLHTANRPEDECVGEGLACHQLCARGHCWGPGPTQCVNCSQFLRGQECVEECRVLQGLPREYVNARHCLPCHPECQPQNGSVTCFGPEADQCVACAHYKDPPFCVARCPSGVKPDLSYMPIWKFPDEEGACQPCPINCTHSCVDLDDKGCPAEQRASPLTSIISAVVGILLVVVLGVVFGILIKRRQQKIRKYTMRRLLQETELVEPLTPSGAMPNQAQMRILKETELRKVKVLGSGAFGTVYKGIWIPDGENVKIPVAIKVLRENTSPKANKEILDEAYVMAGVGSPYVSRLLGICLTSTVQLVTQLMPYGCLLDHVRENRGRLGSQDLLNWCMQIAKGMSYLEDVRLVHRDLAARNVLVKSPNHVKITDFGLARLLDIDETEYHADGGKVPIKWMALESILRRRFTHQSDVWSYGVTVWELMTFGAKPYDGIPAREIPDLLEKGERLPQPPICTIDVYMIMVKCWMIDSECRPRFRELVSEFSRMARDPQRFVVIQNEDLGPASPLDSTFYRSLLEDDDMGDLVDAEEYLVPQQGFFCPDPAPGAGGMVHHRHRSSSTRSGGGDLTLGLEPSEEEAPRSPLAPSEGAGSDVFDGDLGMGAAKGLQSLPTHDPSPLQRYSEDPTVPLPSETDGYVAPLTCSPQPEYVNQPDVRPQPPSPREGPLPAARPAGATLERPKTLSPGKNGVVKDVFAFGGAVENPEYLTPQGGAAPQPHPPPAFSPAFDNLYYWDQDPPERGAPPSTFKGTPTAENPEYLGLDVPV

- AUCextra ([1]; SD rats): 0.288 (h)*(ng/mL)
- AUClast ([1]; SD rats): 4789 (h)*(ng/mL)
- AUCtot ([1]; SD rats): 4802 (h)*(ng/mL)
- Cmax ([1]; SD rats): 0.753 µg/mL
- MRT ([1]; SD rats): 4.74 h
- Tmax ([1]; SD rats): 2.00 h
- t1/2 ([1]; SD rats): 2.74 h
Compound: CCOc1cc2ncnc(Nc3ccc(Oc4ccn5ncnc5c4)c(C)c3)c2cc1NC(=O)/C(F)=C/[C@H]1CCCN1C [Crystal form A, (R,Z)-N-(4-((4-([1,2,4]triazolo[1,5-α]pyridin-7-yloxy)-3-methylphenyl)amino)-7-ethoxyquinazolin-6-yl)-2-fluoro-3-(1-methylpyrrolidin-2-yl)acrylamide]

- AUCextra ([1]; SD rats): 0.758 (h)*(ng/mL)
- AUClast ([1]; SD rats): 6536 (h)*(ng/mL)
- AUCtot ([1]; SD rats): 6586 (h)*(ng/mL)
- Cmax ([1]; SD rats): 0.8 µg/mL
- Tmax ([1]; SD rats): 6.00 h
- half-life ([1]; SD, rat, plasma, po): 3.03 h
- MRT ([1]; SD, rat, plasma, po, read-out: MRT): 6.52 h
Compound: CCOc1cc2ncnc(Nc3ccc(Oc4ccn5ncnc5c4)c(C)c3)c2cc1NC(=O)/C(F)=C/[C@H]1CCCN1C [Amorphous form, (R,Z)-N-(4-((4-([1,2,4]triazolo[1,5-α]pyridin-7-yloxy)-3-methylphenyl)amino)-7-ethoxyquinazolin-6-yl)-2-fluoro-3-(1-methylpyrrolidin-2-yl)acrylamide]

- AUCextra ([1]; SD rats): 0.169 (h)*(ng/mL)
- AUClast ([1]; SD rats): 2870 (h)*(ng/mL)
- AUCtot ([1]; SD rats): 2875 (h)*(ng/mL)
- Cmax ([1]; SD rats): 0.489 µg/mL
- MRT ([1]; SD rats): 4.59 h
- Tmax ([1]; SD rats): 2.00 h
- t1/2 ([1]; SD rats): 2.55 h
Compound: CCOc1cc2ncnc(Nc3ccc(Oc4ccn5ncnc5c4)c(C)c3)c2cc1NC(=O)/C(F)=C/[C@H]1CCCN1C [Crystal form M, (R,Z)-N-(4-((4-([1,2,4]triazolo[1,5-α]pyridin-7-yloxy)-3-methylphenyl)amino)-7-ethoxyquinazolin-6-yl)-2-fluoro-3-(1-methylpyrrolidin-2-yl)acrylamide]

- IC50 (ErbB2 kinase (HER2)): 0.26 nM
- IC50 (EGFR kinase): 1.45 nM
- AUCextra ([1]; SD rats): 0.451 (h)*(ng/mL)
- AUClast ([1]; SD rats): 6863 (h)*(ng/mL)
- AUCtot ([1]; SD rats): 6894 (h)*(ng/mL)
- Cmax ([1]; SD rats): 1.165 µg/mL
- MRT ([1]; SD rats): 4.63 h
- Tmax ([1]; SD rats): 2.00 h
- t1/2 ([1]; SD rats): 3.04 h
- Stability sample purity ([2]; 25° C./60% RH, 1 week, open): 99.29 area %
- Peak at RRT 0.63 ([2]; 25° C./60% RH, one week): 0.18%
- Peak at RRT 0.67 ([2]; 25° C./60% RH, one week): 0.18%
- Peak at RRT 0.95 ([2]; 25° C./60% RH, one week): 0.08%
- Peak at RRT 1.00 ([2]; 25° C./60% RH, one week): 99.29%
- Peak at RRT 1.03 ([2]; 25° C./60% RH, one week): 0.12%
- Peak at RRT 1.08 ([2]; 25° C./60% RH, one week): 0.15%
- Stability sample purity ([2]; 40° C./75% RH, 1 week, open): 99.29 area %
- Peak at RRT 0.63 ([2]; 40° C./75% RH, one week): 0.18%
- Peak at RRT 0.67 ([2]; 40° C./75% RH, one week): 0.18%
- Peak at RRT 0.95 ([2]; 40° C./75% RH, one week): 0.08%
- Peak at RRT 1.00 ([2]; 40° C./75% RH, one week): 99.29%
- Peak at RRT 1.03 ([2]; 40° C./75% RH, one week): 0.12%
- Peak at RRT 1.08 ([2]; 40° C./75% RH, one week): 0.15%
- Stability sample purity ([2]; 60° C., 24 hours, sealed): 99.29 area %
- Peak at RRT 0.63 ([2]; 60° C., one day): 0.18%
- Peak at RRT 0.67 ([2]; 60° C., one day): 0.18%
- Peak at RRT 0.95 ([2]; 60° C., one day): 0.08%
- Peak at RRT 1.00 ([2]; 60° C., one day): 99.29%
- Peak at RRT 1.03 ([2]; 60° C., one day): 0.12%
- Peak at RRT 1.08 ([2]; 60° C., one day): 0.15%
- Peak at RRT 0.63 ([2]; Initial sample): 0.18%
- Peak at RRT 0.67 ([2]; Initial sample): 0.18%
- Peak at RRT 0.95 ([2]; Initial sample): 0.08%
- Peak at RRT 1.00 ([2]; Initial sample): 99.31%
- Peak at RRT 1.03 ([2]; Initial sample): 0.10%
- Peak at RRT 1.08 ([2]; Initial sample): 0.15%
- Crystal form change ([2]; XRPD, 60° C. 24 hours, 25° C./60% RH 1 week, 40° C./75% RH 1 week): No
- Initial purity ([2]; before storage, UPLC): 99.31 area %
Compound: CCOc1cc2ncnc(Nc3ccc(Oc4ccn5ncnc5c4)c(C)c3)c2cc1NC(=O)/C(F)=C/[C@H]1CCCN1C [Crystal form C, (R,Z)-N-(4-((4-([1,2,4]triazolo[1,5-α]pyridin-7-yloxy)-3-methylphenyl)amino)-7-ethoxyquinazolin-6-yl)-2-fluoro-3-(1-methylpyrrolidin-2-yl)acrylamide]

- AUCextra ([1]; SD rats): 1.01 (h)*(ng/mL)
- AUClast ([1]; SD rats): 5904 (h)*(ng/mL)
- AUCtot ([1]; SD rats): 5965 (h)*(ng/mL)
- Cmax ([1]; SD rats): 0.599 µg/mL
- MRT ([1]; SD rats): 6.07 h
- Tmax ([1]; SD rats): 6.00 h
- t1/2 ([1]; SD rats): 3.34 h
Compound: CCOc1cc2ncnc(Nc3ccc(Oc4ccn5ncnc5c4)c(C)c3)c2cc1NC(=O)/C(F)=C/[C@H]1CCCN1C [Crystal form B, (R,Z)-N-(4-((4-([1,2,4]triazolo[1,5-α]pyridin-7-yloxy)-3-methylphenyl)amino)-7-ethoxyquinazolin-6-yl)-2-fluoro-3-(1-methylpyrrolidin-2-yl)acrylamide]
